This data set in a line: Maximum solubility of CoQ10 in coconut oil. The following applies: in neobee (coconut oil). Type of data set: physicochemical.

Structures are written as SMILES.

In the case of `COC1=C(OC)C(=O)C(C/C=C(\C)CC/C=C(\C)CC/C=C(\C)CC/C=C(\C)CC/C=C(\C)CC/C=C(\C)CC/C=C(\C)CC/C=C(\C)CC/C=C(\C)CCC=C(C)C)=C(C)C1=O` [Emulsion Q10, 2-[(2E,6E,10E,14E,18E,22E,26E,30E,34E)-3,7,11,15,19,23,27,31,35,39-Decamethyltetraconta-2,6,10,14,18,22,26,30,34,38-decaenyl]-5,6-dimethoxy-3-methylcyclohexa-2,5-diene-1,4-dione], the maximum solubility stood at 6%.

(Values after patent US11944704B2, “Coenzyme Q10 aerosol” (UNM Rainforest Innovations, priority 2015, dated 2024).)
